According to patent publication US8765746B2 (Millennium Pharmaceuticals, Inc., priority 2010, dated 2014):

Key:
[1] = target: T1, PI3Kalpha (Homo sapiens, UniProt P42336); assay: Human PI3Kα enzyme assay (HTRF); format: biochemical; details: for inhibition at 1.11 µM: read-out: PI3Kalpha % inh
T1 construct: His (N); host or cells: SF9 insect cells (baculovirus)
Text: (§1) The catalytic subunits of PI3Ks are cloned into either pDEST8(p110 alpha) or pDEST10(p110beta, p110delta, and p110gamma) as N-terminal His tagged fusion proteins using the Gateway system (Invitrogen, catalog#11804-010 for pDEST8 and 11806-015 for pDEST10). The sequences are verified before recombinant protein expression using the Baculovirus Expression System with Gateway® Technology. The accession numbers for the subunits are as follows:
(§2) The regulatory subunits of PI3Ks are cloned into pDEST8 as un-tagged protein using the Gateway system (Catalog#11804-010). The sequences are verified before recombinant protein expression using the Baculovirus Expression System with Gateway® Technology. The accession numbers for the subunits are as follows:
(§3) For expression of the p110 complexes, the p85 (MOI of 4) is co-infected with p110 alpha, beta, and delta respectively (1MOI) in SF9 cells and harvested at 60 hours post co-infection. P110 gamma was infected at 1 MOI and harvested at 60 hours post infection.
(§4) For purification, PI3Ks are purified by Ni-NTA Agarose (Qiagen #30250) followed by Mono Q 10/100 GL (Ge Healthcare #17-5167-01). VPS34 is purified by Glutathione Sepharose 4 Fast Flow (GE Healthcare #17-5132-03) followed by HiTrap Q (GE Healthcare #17-1153-01).
1) Human PI3Kα enzyme assay method
(§5) 0.5 uL compounds in DMSO are added to wells of a 384 well microtitre plate (Corning 3575). At room temperature: 10 ul PI3K reaction buffer (50 mM Hepes, 5 mM DTT, 150 mM NaCl, 10 mM beta-glycerophosphate, 10 mM MgCl2, 0.25 mM sodium cholate and 0.001% CHAPS, pH 7.00) containing ATP (25 uM, Promega) is added followed immediately by 10 ul PI3K reaction buffer containing di-C8 PI(4,5)P2 (3.5 uM, CellSignals) and PI3Kalpha (0.4875 nM, Millennium Protein Sciences Group) and the mixture is incubated with shaking at room temperature for 30 minutes. Then 5 ul PI3K stop mix (50 mM Hepes, 5 mM DTT, 150 mM NaCl, 0.01% Tween-20, 15 mM EDTA and 25 nM biotin-PI(3,4,5)P3 (Echelon) is added to quench the reaction followed immediately by addition of 5 ul HTRF detection mix (50 mM Hepes, 5 mM DTT, 150 mM NaCl, 0.01% Tween-20, 40 mM KF, 10 nM GST:GRP-1 PH domain (Millennium Protein Sciences Group), 15 nM Streptavidin-XL (CisBio) and 0.375 nM anti-GST Eu++ antibody (CisBio) at pH 7.00). The plates are then incubated for 1 hour at room temperature with shaking and then read on a BMG PheraStar Plus reader.

[2] = target: T2, PI3Kbeta (Homo sapiens, UniProt P42338); assay: Human PI3K beta enzyme assay (HTRF, as for PI3K alpha); format: biochemical; details: for inhibition at 1.11 µM: read-out: PI3Kbeta % inh; for IC50: read-out: IC50 (inhibit PI3Kbeta)
T2 construct: His (N); host or cells: SF9 insect cells (baculovirus)
Text: as §1, §2, §3, §4, §5
2) Human PI3K beta, delta and gamma isoforms are tested using the procedure described for PI3K alpha above but with the following changes: PI3K beta (5.25 nM), PI3K delta (0.75 nM) and PI3K gamma (5 nM). All isoforms supplied by Millennium Protein Science Group.

T1 sequence (P42336 whole entry): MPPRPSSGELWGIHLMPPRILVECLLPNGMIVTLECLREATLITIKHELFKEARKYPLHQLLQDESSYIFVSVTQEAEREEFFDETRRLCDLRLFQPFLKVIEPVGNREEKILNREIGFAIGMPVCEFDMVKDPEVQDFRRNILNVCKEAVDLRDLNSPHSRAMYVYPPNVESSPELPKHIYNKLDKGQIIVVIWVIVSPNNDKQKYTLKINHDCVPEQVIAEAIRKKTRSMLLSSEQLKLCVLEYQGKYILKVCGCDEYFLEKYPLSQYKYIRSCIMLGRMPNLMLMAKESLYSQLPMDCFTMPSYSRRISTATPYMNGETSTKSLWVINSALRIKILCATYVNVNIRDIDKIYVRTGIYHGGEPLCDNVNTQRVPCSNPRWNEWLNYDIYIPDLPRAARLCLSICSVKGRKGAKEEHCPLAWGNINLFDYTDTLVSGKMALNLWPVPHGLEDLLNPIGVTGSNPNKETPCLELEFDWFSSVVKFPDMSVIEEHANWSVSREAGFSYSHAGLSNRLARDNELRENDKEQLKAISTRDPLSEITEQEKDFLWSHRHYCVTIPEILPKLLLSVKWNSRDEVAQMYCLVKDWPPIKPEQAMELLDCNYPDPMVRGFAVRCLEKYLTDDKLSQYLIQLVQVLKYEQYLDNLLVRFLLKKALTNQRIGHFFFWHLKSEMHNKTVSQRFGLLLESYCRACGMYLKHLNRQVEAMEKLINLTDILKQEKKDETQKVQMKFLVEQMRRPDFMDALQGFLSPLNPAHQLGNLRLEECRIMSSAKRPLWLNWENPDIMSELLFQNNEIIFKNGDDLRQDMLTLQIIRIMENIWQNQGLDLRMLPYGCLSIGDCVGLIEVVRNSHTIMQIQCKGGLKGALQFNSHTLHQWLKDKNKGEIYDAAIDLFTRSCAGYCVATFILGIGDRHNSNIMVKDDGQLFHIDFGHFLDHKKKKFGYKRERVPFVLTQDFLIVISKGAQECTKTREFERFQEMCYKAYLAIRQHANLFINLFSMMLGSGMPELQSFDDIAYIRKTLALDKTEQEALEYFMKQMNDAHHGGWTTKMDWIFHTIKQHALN
T1 sequence (P27986 whole entry partner): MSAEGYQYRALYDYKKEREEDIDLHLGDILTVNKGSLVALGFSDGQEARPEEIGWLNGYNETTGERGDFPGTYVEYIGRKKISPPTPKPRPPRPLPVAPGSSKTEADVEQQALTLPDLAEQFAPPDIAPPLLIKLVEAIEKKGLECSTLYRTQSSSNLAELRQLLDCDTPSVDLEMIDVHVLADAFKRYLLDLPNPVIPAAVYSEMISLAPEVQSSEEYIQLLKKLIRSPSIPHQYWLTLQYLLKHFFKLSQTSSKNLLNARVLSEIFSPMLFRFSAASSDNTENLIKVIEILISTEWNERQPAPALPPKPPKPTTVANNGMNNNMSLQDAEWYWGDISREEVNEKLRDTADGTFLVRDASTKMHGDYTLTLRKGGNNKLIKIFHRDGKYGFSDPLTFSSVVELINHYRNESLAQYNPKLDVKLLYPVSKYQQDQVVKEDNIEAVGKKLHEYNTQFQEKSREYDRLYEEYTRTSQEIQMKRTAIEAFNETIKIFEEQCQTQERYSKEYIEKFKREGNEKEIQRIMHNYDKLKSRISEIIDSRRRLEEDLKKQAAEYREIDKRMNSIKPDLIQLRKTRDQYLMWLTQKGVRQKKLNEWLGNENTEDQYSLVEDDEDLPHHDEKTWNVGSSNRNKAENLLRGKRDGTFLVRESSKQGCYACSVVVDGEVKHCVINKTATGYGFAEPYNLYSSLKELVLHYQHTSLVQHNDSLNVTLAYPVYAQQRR
T2 sequence (P42338 whole entry): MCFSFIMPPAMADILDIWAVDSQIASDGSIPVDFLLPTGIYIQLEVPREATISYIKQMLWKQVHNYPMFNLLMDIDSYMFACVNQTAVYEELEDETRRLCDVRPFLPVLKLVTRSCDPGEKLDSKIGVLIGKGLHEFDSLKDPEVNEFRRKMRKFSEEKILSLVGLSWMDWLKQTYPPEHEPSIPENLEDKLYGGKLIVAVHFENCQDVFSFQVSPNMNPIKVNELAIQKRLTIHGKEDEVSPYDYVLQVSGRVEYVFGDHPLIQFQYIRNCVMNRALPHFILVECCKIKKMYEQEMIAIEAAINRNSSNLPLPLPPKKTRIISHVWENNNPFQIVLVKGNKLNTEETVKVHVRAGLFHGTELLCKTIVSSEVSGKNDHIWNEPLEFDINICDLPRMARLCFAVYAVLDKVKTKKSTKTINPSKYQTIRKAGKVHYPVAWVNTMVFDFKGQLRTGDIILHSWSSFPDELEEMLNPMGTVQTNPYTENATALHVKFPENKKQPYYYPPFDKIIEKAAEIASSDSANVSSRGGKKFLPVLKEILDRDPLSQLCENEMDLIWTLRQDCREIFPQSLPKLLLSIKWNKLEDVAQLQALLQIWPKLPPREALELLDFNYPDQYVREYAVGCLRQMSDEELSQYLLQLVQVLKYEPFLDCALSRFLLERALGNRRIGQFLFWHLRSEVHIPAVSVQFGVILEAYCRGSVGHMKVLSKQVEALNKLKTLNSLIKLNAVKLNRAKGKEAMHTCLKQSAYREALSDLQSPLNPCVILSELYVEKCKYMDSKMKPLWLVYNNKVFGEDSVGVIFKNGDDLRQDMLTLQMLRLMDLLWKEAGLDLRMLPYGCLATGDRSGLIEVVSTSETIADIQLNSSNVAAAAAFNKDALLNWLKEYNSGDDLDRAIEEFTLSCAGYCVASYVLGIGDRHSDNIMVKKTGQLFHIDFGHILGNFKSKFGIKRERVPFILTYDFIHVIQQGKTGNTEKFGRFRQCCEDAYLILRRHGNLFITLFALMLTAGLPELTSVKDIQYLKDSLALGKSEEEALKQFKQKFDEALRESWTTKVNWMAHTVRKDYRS
T2 sequence (P27986 whole entry partner): as the sequence (P27986 whole entry partner) above

| inhibition at 1.11 µM [1] | inhibition at 1.11 µM ([2]; at 1.11 μM) | PI3Kalpha % inh ([1]; at 1.11 μM) | PI3Kbeta % inh ([2]; at 1.11 μM) | IC50 [2] | SMILES |
| --- | --- | --- | --- | --- | --- |
| 7.29% | 64.6% | – | – | – | CNC(=O)[C@@H]1NC(=O)c2sc(-c3ccnc(C)c3)cc2[C@H]1c1ccc(Cl)cc1 (relative stereo) [Compound 138, rel-(4R,5R)-4-(4-chlorophenyl)-N-methyl-2-(2-methylpyridin-4-yl)-7-oxo-4,5,6,7-tetrahydrothieno[2,3-c]pyridine-5-carboxamide] |
| 16.1% | 80.8% | – | – | – | O=C1NCC(c2ccc(Cl)cc2)c2c1sc(N1CCOCC1)c2C#Cc1ccccc1 (single isomer, unassigned) [Compound 137, 4-(4-chlorophenyl)-2-(morpholin-4-yl)-3-(phenylethynyl)-5,6-dihydrothieno[2,3-c]pyridin-7(4H)-one] |
| 10% | 82.5% | – | – | – | C=Cc1c(N2CCOCC2)sc2c1C(c1ccc(Cl)cc1)CNC2=O (single isomer, unassigned) [Compound 143, 4-(4-chlorophenyl)-2-(morpholin-4-yl)-3-vinyl-5,6-dihydrothieno[2,3-c]pyridin-7(4H)-one] |
| 8.59% | 69.5% | – | – | – | O=C1NCC(c2ccc(Cl)cc2)c2c1sc(N1CCOCC1)c2Br (single isomer, unassigned) [Compound 181, 3-bromo-4-(4-chlorophenyl)-2-(morpholin-4-yl)-5,6-dihydrothieno[2,3-c]pyridin-7(4H)-one] |

Second part, the compound before the results:

| SMILES | inhibition at 1.11 µM [1] | inhibition at 1.11 µM ([2]; at 1.11 μM) | PI3Kalpha % inh ([1]; at 1.11 μM) | PI3Kbeta % inh ([2]; at 1.11 μM) | IC50 [2] |
| --- | --- | --- | --- | --- | --- |
| COC(=O)[C@@H]1NC(=O)c2sc(N3CCOCC3)cc2[C@H]1c1ccc(Cl)c(Cl)c1 (relative stereo) [Compound 127, methyl rel-(4R,5R)-4-(3,4-dichlorophenyl)-2-(morpholin-4-yl)-7-oxo-4,5,6,7-tetrahydrothieno[2,3-c]pyridine-5-carboxylate] | 31.4% | 75.8% | – | – | – |
| O=C1N[C@@H](C(=O)O)[C@H](c2ccc(Cl)c(Cl)c2)c2cc(N3CCOCC3)sc21 (relative stereo) [Compound 142, rel-(4R,5R)-4-(3,4-dichlorophenyl)-2-(morpholin-4-yl)-7-oxo-4,5,6,7-tetrahydrothieno[2,3-c]pyridine-5-carboxylic acid] | 16.7% | 72% | – | – | – |
| O=C1CCC(c2ccc(Cl)cc2)c2cc(-c3ccncc3)sc21 (single isomer, unassigned) [Compound 4, 4-(4-chlorophenyl)-2-pyridin-4-yl-5,6-dihydro-1-benzothiophen-7(4H)-one] | – | – | −0.100% | 14.400% | > 1 µM |
| O=C1NCC(c2ccc(Cl)cc2)c2c1sc(N1CCOCC1)c2CO (single isomer, unassigned) [Compound 178, 4-(4-chlorophenyl)-3-(hydroxymethyl)-2-(morpholin-4-yl)-5,6-dihydrothieno[2,3-c]pyridin-7(4H)-one] | 4.71% | 40.2% | – | – | – |
| O=Cc1c(N2CCOCC2)sc2c1C(c1ccc(Cl)cc1)CNC2=O (single isomer, unassigned) [Compound 193, 4-(4-chlorophenyl)-2-(morpholin-4-yl)-7-oxo-4,5,6,7-tetrahydrothieno[2,3-c]pyridine-3-carbaldehyde] | 11.1% | 79.1% | – | – | – |
| CC1(C)CC(=O)c2sc(-c3ccncc3)cc2C1(O)c1ccc(Cl)cc1 (stereo not shown) [Compound 5, 4-(4-chlorophenyl)-4-hydroxy-5,5-dimethyl-2-pyridin-4-yl-5,6-dihydro-1-benzothiophen-7(4H)-one] | -3.8% | 32.8% | – | – | > 1 µM |
| O=C1OC2(CCC(=O)c3sc(-c4ccncc4)cc32)c2ccc(Cl)cc21 (stereo not shown) [Compound 14, 5-chloro-2′-pyridin-4-yl-5′,6′-dihydro-3H,7′H-spiro[2-benzofuran-1,4′-[1]benzothiophene]-3,7′-dione] | 8.7% | 31.9% | – | – | > 1 µM |
